Source: patent US9801901B2, “Alginate oligomers for use in overcoming multidrug resistance in bacteria” (priority 2009, dated 2017)
Read-outs that look alike come from different tables or passages of the source.

What was measured:
[1] = test system: strains of Klebsiella pneumoniae displaying MDR phenotypes; test: MIC-assay, Mueller-Hinton broth with G-block alginate, 384-well, OD600 (Table 10); format: cell-based; conditions: read-out: MIC
Description: Minimum inhibitory concentration (MICs) of different antibiotics for strains of Klebsiella pneumoniae displaying MDR phenotypes in the presence of varying concentrations of OligoCF-5/20 (0-10%). (MIC values are expressed in μg ml^−1).

MDR Providencia stuartii = test: MIC-assay, Mueller-Hinton broth with G-block alginate, 384-well, OD600 (Table 11); format: cell-based; conditions: Providencia stuartii (IR57 India, V7) MDR
Description: (§1) Minimum inhibitory concentration (MICs) of different antibiotics for strains of E. coli and Providencia stuartii displaying MDR phenotypes in the presence of varying concentrations of OligoCF-5/20 (0-10%). (MIC values are expressed in μg ml^−1).

[2] = test system: strains of E. coli displaying MDR phenotypes; test: as above; format: cell-based; conditions: Escherichia coli, Escherichia coli (5702, Wales, V11) MDR, read-out: MIC
Description: as §1

[3] = test system: Pseudomonas aeruginosa (MDR 301, PSA, V2); test: MIC-assay, Mueller-Hinton broth with G-block alginate, 384-well, OD600
[4] = test system: Burkholderia cepacia (1322, V23); test: as above
[5] = test system: Burkholderia cepacia (LMG18941, ATCC-BAA-246); test: as above
[6] = test system: Acinetobacter lwoffii (6056, V22); test: as above
[7] = test system: Acinetobacter baumannii (Egypt, V9); test: as above
[8] = test system: Acinetobacter lwoffii (Egypt, V10); test: as above
[9] = Klebsiella pneumoniae (5712, Wales, V12) MDR, G-block (OligoCF-5/20) 0%
[10] = Klebsiella pneumoniae (5712, Wales, V12) MDR, G-block (OligoCF-5/20) 2%
[11] = Klebsiella pneumoniae (5712, Wales, V12) MDR, G-block (OligoCF-5/20) 6%
[12] = Klebsiella pneumoniae (5712, Wales, V12) MDR, G-block (OligoCF-5/20) 10%
[13] = Klebsiella pneumoniae (IR25, India, V6) MDR, G-block (OligoCF-5/20) 0%
[14] = Klebsiella pneumoniae (IR25, India, V6) MDR, G-block (OligoCF-5/20) 2%
[15] = Klebsiella pneumoniae (IR25, India, V6) MDR, G-block (OligoCF-5/20) 6%
[16] = Klebsiella pneumoniae (IR25, India, V6) MDR, G-block (OligoCF-5/20) 10%
[17] = Klebsiella pneumoniae (K3, India, V8) MDR, G-block (OligoCF-5/20) 0%
[18] = Klebsiella pneumoniae (K3, India, V8) MDR, G-block (OligoCF-5/20) 2%
[19] = Klebsiella pneumoniae (K3, India, V8) MDR, G-block (OligoCF-5/20) 6%
[20] = Klebsiella pneumoniae (K3, India, V8) MDR, G-block (OligoCF-5/20) 10%
[21] = Pseudomonas aeruginosa, Table 8, V2, G-block (OligoCF-5/20) 0%
[22] = Pseudomonas aeruginosa, Table 8, V2, G-block (OligoCF-5/20) 2%
[23] = Pseudomonas aeruginosa, Table 8, V2, G-block (OligoCF-5/20) 6%
[24] = Pseudomonas aeruginosa, Table 8, V2, G-block (OligoCF-5/20) 10%
[25] = Table 8, G-block (OligoCF-5/20) 0%
[26] = Table 8, G-block (OligoCF-5/20) 2%
[27] = Table 8, G-block (OligoCF-5/20) 6%
[28] = Table 8, G-block (OligoCF-5/20) 10%
[29] = ATCCBAA246|LMG18941, Table 8, G-block (OligoCF-5/20) 0%
[30] = ATCCBAA246|LMG18941, Table 8, G-block (OligoCF-5/20) 2%
[31] = ATCCBAA246|LMG18941, Table 8, G-block (OligoCF-5/20) 6%
[32] = ATCCBAA246|LMG18941, Table 8, G-block (OligoCF-5/20) 10%
[33] = Table 9, G-block (OligoCF-5/20) 0%
[34] = Table 9, G-block (OligoCF-5/20) 2%
[35] = Table 9, G-block (OligoCF-5/20) 6%
[36] = Table 9, G-block (OligoCF-5/20) 10%

Measured: MIC

CC[C@H]1OC(=O)[C@H](C)[C@@H](O[C@H]2C[C@@](C)(OC)[C@@H](O)[C@H](C)O2)[C@H](C)[C@@H](O[C@@H]2O[C@H](C)C[C@H](N(C)C)[C@H]2O)[C@](C)(O)C[C@@H](C)/C(=N\OCOCCOC)[C@H](C)[C@@H](O)[C@]1(C)O [Roxithromycin]
512 µg/mL: [1]; [10] | [1]; [11] | [1]; [12] | [1]; [17] | [2]; G-block (OligoCF-5/20) 0% | [2]; G-block (OligoCF-5/20) 10% | [4]; [25] | [4]; [26]
4 µg/mL: [6]; [33] | [7]; [34] | [7]; [35] | [8]; [33]
32 µg/mL: MDR Providencia stuartii; G-block (OligoCF-5/20) 2% | MDR Providencia stuartii; G-block (OligoCF-5/20) 6% | MDR Providencia stuartii; G-block (OligoCF-5/20) 10%
8 µg/mL: [7]; [33]
< 2 µg/mL: [6]; [34] | [6]; [35] | [6]; [36]
128 µg/mL: [2]; G-block (OligoCF-5/20) 2% | [5]; [32]
> 512 µg/mL: [3]; [21] | [3]; [22] | [3]; [23] | [3]; [24]
> 1020 µg/mL: [1]; [14] | [1]; [16] | [1]; [19] | [1]; [20]
1020 µg/mL: [1]; [13] | [1]; [15]
2 µg/mL: [7]; [36]
64 µg/mL: MDR Providencia stuartii; G-block (OligoCF-5/20) 0% | [4]; [28]
256 µg/mL: [1]; [9] | [1]; [18] | [2]; G-block (OligoCF-5/20) 6% | [4]; [27] | [5]; [29] | [5]; [30] | [5]; [31]
< 1 µg/mL: [8]; [34] | [8]; [35] | [8]; [36]

C[C@@H](O)[C@H]1C(=O)N2C(C(=O)O)=C(SCCN=CN)C[C@H]12 [Imipenem]
2 µg/mL: [1]; [14] | [1]; [15] | [1]; [16] | [6]; [33] | [6]; [34] | [6]; [35] | [7]; [33] | [7]; [35]
128 µg/mL: [3]; Pseudomonas aeruginosa | [3]; Table 8, V2, G-block (OligoCF-5/20) 10%
< 2 µg/mL: [1]; [9] | [1]; [10] | [1]; [11] | [1]; [12] | [1]; [13] | [2]; G-block (OligoCF-5/20) 0% | [2]; G-block (OligoCF-5/20) 2% | [2]; G-block (OligoCF-5/20) 6% | [2]; G-block (OligoCF-5/20) 10% | [6]; [36] | [7]; [34] | [7]; [36] | [8]; [33] | [8]; [34] | [8]; [35] | [8]; [36]
8 µg/mL: [1]; [17] | [1]; [20] | MDR Providencia stuartii; G-block (OligoCF-5/20) 10%
> 16 µg/mL: [4]; [25] | [5]; [29] | [5]; [30] | [5]; [31] | [5]; [32]
256 µg/mL: [3]; [21] | [3]; [22]
16 µg/mL: [1]; [18] | [1]; [19] | MDR Providencia stuartii; G-block (OligoCF-5/20) 0% | MDR Providencia stuartii; G-block (OligoCF-5/20) 2% | MDR Providencia stuartii; G-block (OligoCF-5/20) 6% | [4]; [26] | [4]; [27] | [4]; [28]

CC[C@H]1OC(=O)[C@H](C)[C@@H](O[C@H]2C[C@@](C)(OC)[C@@H](O)[C@H](C)O2)[C@H](C)[C@@H](O[C@@H]2O[C@H](C)C[C@H](N(C)C)[C@H]2O)[C@](C)(O)C[C@@H](C)[C@@H]2N[C@@H](COCCOC)O[C@H]([C@H]2C)[C@]1(C)O [Dirithromycin]
1020 µg/mL: [1]; [13] | [1]; [14]
< 1 µg/mL: [7]; [34] | [7]; [35] | [7]; [36] | [8]; [33] | [8]; [34] | [8]; [35] | [8]; [36]
2 µg/mL: MDR Providencia stuartii; G-block (OligoCF-5/20) 10%
4 µg/mL: MDR Providencia stuartii; G-block (OligoCF-5/20) 2% | MDR Providencia stuartii; G-block (OligoCF-5/20) 6% | [7]; [33]
8 µg/mL: MDR Providencia stuartii; G-block (OligoCF-5/20) 0%
256 µg/mL: [1]; [16] | [1]; [17] | [4]; [25] | [4]; [26] | [5]; [30] | [5]; [31] | [5]; [32]
< 2 µg/mL: [6]; [33] | [6]; [34] | [6]; [35] | [6]; [36]
32 µg/mL: [1]; [12] | [2]; G-block (OligoCF-5/20) 6%
512 µg/mL: [1]; [15] | [3]; [23] | [3]; [24] | [5]; [29]
> 512 µg/mL: [3]; [21] | [3]; [22]
64 µg/mL: [1]; [10] | [1]; [11] | [2]; G-block (OligoCF-5/20) 2% | [2]; G-block (OligoCF-5/20) 10% | [4]; [28]
128 µg/mL: [1]; [9] | [1]; [18] | [1]; [19] | [1]; [20] | [2]; G-block (OligoCF-5/20) 0% | [4]; [27]
